# Target: T1, PCSK9 (Homo sapiens, UniProt Q8NBP7)
# T1 construct: gift from Dr. Daniel Kirchhofer, Genentech
# Assay: SPR measurement of PCSK9 binding to synthesized pep2-8
# Conditions: synthesized peptide on streptavidin-coated gold surface, average and standard deviation over PCSK9 concentrations
# Protocol: The synthesized peptide was immobilized to a streptavidin-coated gold surface. Different concentrations of PCSK9 were flowed to the surface to measure the binding kinetics.
# The SPR sensor chip was fabricated by coating 1.5 nm Cr and then 47 nm Au on cover glass (no. 1 VWR) using an e-beam evaporator. Prior to surface functionalization, the gold surface was cleaned with ethanol and DI water twice, dried by N2, and annealed by H2 flame. The gold chip was immersed in a mixture of 0.2 mM SH-PEG8-COOH and 0.2 mM MT(PEG)4 overnight. Then, —COOH was activated using NHS/EDC chemistry (50 mM NHS and 200 mM EDC) for 20 min and incubated with 0.1 mg/mL streptavidin in PBS for 30 min to allow immobilization. The remaining unreacted sites were quenched with 10 mM ethanolamine and the nonspecific binding sites were blocked with SuperBlock for 10 min. […] The functionalized chip was finally rinsed with PBS before the measurement.
# T1 sequence (Q8NBP7 153-692, species assumed): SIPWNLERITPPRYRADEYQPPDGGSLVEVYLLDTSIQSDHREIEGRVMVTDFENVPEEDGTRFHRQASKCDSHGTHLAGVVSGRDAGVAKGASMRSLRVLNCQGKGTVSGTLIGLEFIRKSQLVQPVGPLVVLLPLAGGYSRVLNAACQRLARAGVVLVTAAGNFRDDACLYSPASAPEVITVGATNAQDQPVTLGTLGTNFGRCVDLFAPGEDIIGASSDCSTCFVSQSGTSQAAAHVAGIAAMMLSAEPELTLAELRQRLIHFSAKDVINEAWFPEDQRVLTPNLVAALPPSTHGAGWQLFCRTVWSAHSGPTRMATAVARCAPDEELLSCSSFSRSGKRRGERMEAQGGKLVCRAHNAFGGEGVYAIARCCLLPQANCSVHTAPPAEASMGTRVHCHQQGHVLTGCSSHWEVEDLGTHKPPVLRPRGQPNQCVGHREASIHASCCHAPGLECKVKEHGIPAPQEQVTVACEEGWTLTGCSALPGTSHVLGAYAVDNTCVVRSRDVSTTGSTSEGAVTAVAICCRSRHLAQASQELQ
smiles,measurement,value
CC(=O)N[C@H](C(=O)N[C@H](C(=O)N[C@@H](Cc1ccccc1)C(=O)N[C@H](C(=O)N[C@@H](CO)C(=O)N[C@@H](Cc1c[nH]c2ccccc12)C(=O)N[C@@H](CCC(=O)O)C(=O)N[C@@H](CCC(=O)O)C(=O)N[C@@H](Cc1ccc(O)cc1)C(=O)N[C@@H](CC(C)C)C(=O)N[C@@H](CC(=O)O)C(=O)N[C@@H](Cc1c[nH]c2ccccc12)C(=O)N[C@H](C(N)=O)C(C)C)[C@@H](C)O)C(C)C)[C@@H](C)O [pep2-8],kd,(1.73±0.25)×10^−1 s^−1

# — US12259330B2 (ARIZONA BOARD OF REGENTS ON BEHALF OF ARIZONA STATE …, priority 2021, dated 2025)
